# According to article PMC4175002, “The Design and Synthesis of Potent and Selective Inhibitors of Trypanosoma brucei Glycogen Synthase Kinase 3 for the Treatment of Human African Trypanosomiasis” (Journal of Medicinal Chemistry, 2014):
# What was measured:
# [1] = biological target: HsCDK2/cyclin A (Homo sapiens, UniProt P24941); test: Radiometric Flashplate potency assay, HsCDK2/cyclin A; format: biochemical; conditions: ratio of IC50 values
# Procedure: For compound potency determinations, a radiometric 96-well Flashplate assay (PerkinElmer) was adopted. Compounds were solubilized in DMSO at a top concentration of 3 mM and serially diluted to achieve 10-point titration of final assay concentrations from 30 μM to 0.3 nM with a final DMSO concentration of 1% (v/v). The reaction mixtures contained 1 μM biotinylated GSP2 substrate, 1 μM ATP, 3.7 KBq/well [γ-33P]-ATP and 2.5 nM TbGSK3 in the TbGSK3 kinase assay buffer. GSK3 inhibitors were screened for selectivity assessment also against HsGSK3β. For HsGSK3 assay, the reaction mixes contained 1 μM biotinylated GSP2 substrate, 2 μM ATP, 7.4 KBq/well [γ-33P]-ATP and 15 nM HsGSK3β in the TbGSK3 kinase assay buffer (25 mM Tris-HCl, pH 7.5, 10 mM MgCl2, 5 mM DTT, 0.02% CHAPS, 2 U/mL heparin). For HsCDK2/cyclin A assay, the reaction mixtures contained 1 mM CDK5 biotinylated peptide substrate (Biotin-C6-PKTPKKAKKL), 1 μM ATP, 7.4 KBq/well [γ-^33P]-ATP and 2 nM HsCDK2/cyclin A in the kinase assay buffer (50 mM Tris-HCl, pH 7.5, 10 mM MgCl2, 2 mM DTT, 100 mM NaCl, 0.2 mM EGTA, 0.02% (v/v) Brij35).
# For the HsCDK2 assay, the analysis was performed using two different standards (GW8510 and staurosporine) tested respectively five times in a single run and 19 times in 2 independent runs. This implies that a difference of >0.3 in pIC50 can be considered statistically significant for this assay.
# [2] = biological target: T1, P38b MAPK (Homo sapiens, UniProt Q15759); test: Mammalian kinase profiling (DSTT panel); format: biochemical; conditions: 10 μM; average percentage of remaining activity
# T1 construct: purchased Division of Signal Transduction Therapy (DSTT), University of Dundee
# T1 sequence (Q15759 whole entry): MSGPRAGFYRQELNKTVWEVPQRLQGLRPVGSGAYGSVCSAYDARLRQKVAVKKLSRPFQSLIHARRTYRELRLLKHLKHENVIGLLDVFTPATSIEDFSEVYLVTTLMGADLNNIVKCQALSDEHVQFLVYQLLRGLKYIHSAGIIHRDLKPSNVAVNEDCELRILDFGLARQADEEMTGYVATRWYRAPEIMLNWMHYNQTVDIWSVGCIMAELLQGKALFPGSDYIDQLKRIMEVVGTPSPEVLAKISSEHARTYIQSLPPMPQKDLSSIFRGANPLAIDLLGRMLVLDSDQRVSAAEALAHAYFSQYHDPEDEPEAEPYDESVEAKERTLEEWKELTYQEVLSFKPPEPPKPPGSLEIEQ
# [3] = system: bloodstream form T. b. brucei; test: Trypanosome proliferation assay (resazurin); format: cell-based; conditions: Trypanosoma brucei, 72 h, concentration required to inhibit growth in culture by 50% over 72 h
# Procedure: (§1) Measurement of inhibition of the proliferation of MRC5 (human lung fibroblast) cells and T. b. brucei bloodstream stage cells was performed using a modification of the cell viability assay previously described.[33] Compounds (50 μM to 0.5 nM) were incubated with 2 × 10^3 cells/well in 0.2 mL of the appropriate culture medium (MEM with 10% fetal bovine serum for MRC5 cells) in clear 96-well plates. Plates were incubated at 37 °C in the presence of 5% CO2 for 69 h. Resazurin was then added to a final concentration of 50 μM, and plates were incubated as above for a further 4 h before being read on a BioTek flx800 fluorescent plate reader.
# [4] = system: MRC5 cells; test: MRC5 proliferation assay (resazurin); format: cell-based, human; conditions: T. b. brucei versus MRC5 EC50
# Procedure: as §1
# [5] = biological target: T2, CDK2 (Homo sapiens, UniProt P24941); test: Mammalian kinase profiling (DSTT panel); format: biochemical
# T2 construct: purchased Division of Signal Transduction Therapy (DSTT), University of Dundee
# [6] = biological target: T3, GSK3b (Homo sapiens, UniProt P49841); test: Mammalian kinase profiling (DSTT panel); format: biochemical; conditions: read-out: inhibition of GSK3β
# T3 construct: purchased Division of Signal Transduction Therapy (DSTT), University of Dundee
# T3 sequence (P49841 whole entry): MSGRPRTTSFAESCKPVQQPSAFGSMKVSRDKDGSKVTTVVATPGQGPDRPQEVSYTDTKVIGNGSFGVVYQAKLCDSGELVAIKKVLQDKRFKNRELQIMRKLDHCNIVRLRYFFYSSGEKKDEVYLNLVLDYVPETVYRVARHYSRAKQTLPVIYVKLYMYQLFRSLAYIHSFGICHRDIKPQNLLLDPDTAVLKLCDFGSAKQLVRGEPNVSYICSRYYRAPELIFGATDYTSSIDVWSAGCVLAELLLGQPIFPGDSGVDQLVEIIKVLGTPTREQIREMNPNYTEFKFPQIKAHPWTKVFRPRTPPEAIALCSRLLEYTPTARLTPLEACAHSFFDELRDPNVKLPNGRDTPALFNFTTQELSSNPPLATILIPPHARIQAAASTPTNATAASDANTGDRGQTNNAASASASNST
# [7] = biological target: T4, PKBa (Homo sapiens, UniProt P31749); test: Mammalian kinase profiling (DSTT panel); format: biochemical; conditions: average percentage of remaining activity, read-out: PKBa activity compared to the control
# T4 construct: purchased Division of Signal Transduction Therapy (DSTT), University of Dundee
# T4 sequence (P31749 whole entry): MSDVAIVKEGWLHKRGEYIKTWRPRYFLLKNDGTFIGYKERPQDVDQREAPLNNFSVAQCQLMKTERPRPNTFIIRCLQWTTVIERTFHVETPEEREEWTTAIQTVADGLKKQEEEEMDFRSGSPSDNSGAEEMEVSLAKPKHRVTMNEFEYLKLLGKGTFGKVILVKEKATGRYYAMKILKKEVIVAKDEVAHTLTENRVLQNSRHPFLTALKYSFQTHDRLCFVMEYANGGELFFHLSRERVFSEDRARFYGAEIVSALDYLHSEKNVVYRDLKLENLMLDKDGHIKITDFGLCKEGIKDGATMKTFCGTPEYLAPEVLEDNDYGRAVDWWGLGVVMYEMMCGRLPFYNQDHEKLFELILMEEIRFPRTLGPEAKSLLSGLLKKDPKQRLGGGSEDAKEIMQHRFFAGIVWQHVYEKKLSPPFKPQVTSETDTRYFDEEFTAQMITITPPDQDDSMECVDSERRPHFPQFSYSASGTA
# [8] = biological target: T5, PRK2 (Homo sapiens, UniProt Q16513); test: Mammalian kinase profiling (DSTT panel); format: biochemical; conditions: 10 μM; average percentage of remaining activity
# T5 construct: purchased Division of Signal Transduction Therapy (DSTT), University of Dundee
# T5 sequence (Q16513 whole entry): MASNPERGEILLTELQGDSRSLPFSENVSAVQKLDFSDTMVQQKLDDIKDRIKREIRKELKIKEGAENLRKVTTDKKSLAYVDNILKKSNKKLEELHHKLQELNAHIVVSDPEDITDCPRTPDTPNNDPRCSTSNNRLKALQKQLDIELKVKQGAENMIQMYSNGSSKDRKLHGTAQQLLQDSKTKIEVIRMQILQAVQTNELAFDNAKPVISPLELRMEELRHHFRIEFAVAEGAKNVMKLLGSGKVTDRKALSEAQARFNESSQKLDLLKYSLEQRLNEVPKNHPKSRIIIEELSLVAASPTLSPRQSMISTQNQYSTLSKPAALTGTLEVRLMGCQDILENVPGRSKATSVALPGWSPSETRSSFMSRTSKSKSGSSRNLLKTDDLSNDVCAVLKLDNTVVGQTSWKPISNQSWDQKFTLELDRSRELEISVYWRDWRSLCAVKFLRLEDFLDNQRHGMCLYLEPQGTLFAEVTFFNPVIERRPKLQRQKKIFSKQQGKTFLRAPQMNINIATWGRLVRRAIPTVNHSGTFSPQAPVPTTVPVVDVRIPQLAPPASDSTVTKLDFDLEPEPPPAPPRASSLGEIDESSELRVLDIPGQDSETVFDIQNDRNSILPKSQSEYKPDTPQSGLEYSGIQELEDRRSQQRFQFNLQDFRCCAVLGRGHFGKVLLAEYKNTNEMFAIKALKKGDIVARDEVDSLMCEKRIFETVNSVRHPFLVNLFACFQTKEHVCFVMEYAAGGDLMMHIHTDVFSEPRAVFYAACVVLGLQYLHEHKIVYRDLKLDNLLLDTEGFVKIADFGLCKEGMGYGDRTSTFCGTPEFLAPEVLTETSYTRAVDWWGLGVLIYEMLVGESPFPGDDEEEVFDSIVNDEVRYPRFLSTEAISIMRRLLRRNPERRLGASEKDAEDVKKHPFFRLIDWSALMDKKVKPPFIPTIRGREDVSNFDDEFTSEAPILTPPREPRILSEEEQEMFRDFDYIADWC
# [9] = biological target: T6, RSK2 (Homo sapiens, UniProt P51812); test: Mammalian kinase profiling (DSTT panel); format: biochemical; conditions: 10 μM; average percentage of remaining activity
# T6 construct: purchased Division of Signal Transduction Therapy (DSTT), University of Dundee
# T6 sequence (P51812 whole entry): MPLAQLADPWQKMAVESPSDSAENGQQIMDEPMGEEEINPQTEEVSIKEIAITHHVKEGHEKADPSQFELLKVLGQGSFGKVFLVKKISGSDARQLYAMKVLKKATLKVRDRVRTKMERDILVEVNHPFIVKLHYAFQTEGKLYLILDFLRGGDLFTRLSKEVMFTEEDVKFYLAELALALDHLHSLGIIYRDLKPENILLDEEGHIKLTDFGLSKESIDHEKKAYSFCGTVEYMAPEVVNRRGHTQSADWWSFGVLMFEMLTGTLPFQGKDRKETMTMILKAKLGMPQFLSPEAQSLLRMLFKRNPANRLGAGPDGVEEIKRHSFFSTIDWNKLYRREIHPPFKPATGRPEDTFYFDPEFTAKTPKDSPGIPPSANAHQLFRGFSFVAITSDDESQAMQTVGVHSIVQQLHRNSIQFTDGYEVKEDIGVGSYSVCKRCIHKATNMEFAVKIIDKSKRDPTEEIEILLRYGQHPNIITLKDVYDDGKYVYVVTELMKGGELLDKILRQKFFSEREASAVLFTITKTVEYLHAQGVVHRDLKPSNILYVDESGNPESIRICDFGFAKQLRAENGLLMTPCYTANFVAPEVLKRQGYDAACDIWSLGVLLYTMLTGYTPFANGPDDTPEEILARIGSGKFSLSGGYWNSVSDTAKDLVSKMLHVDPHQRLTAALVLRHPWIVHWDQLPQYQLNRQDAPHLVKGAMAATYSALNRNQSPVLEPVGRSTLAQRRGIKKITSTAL
smiles,measurement,setting,value
"CO[C@H]1CC[C@H](NC(=O)c2n[nH]cc2NC(=O)c2ccccc2)CC1 [Compound 4f, 4-Benzamido-N-(4-methoxycyclohexyl)-1H-pyrazole-3-carboxamide]",ratio HsCDK2/TbGSK3,[1],<1.6
same,P38b MAPK activity compared to the control,[2],74%
"COc1cccc(OC)c1C(=O)Nc1c[nH]nc1C(=O)NC1CCC(OC)CC1 (stereo not drawn) [Compound 4m, 4-(2,6-Dimethoxybenzamido)-N-(4-methoxycyclohexyl)-1H-pyrazole-3-carboxamide]",EC50,[3],< 1000 nM
same,selectivity over MRC5 cells,[4],60 fold
same,inhibition at 10 µM,[5],> 80%
same,inhibition at 10 µM,[6],> 80%
"CO[C@H]1CC[C@H](NC(=O)c2n[nH]cc2NC(=O)c2ccc(-c3ccccc3)o2)CC1 [Compound 4y, N-(4-Methoxycyclohexyl)-4-(5-phenylfuran-2-carboxamido)-1H-pyrazole-3-carboxamide]",remaining activity at 10 µM,[7],86%
same,PRK2 activity compared to the control,[8],65%
same,RSK2 activity compared to the control,[9],93%
